According to PubChem BioAssay (NCI):
Several values for one entry are separate records, joined by “and”; a condition that tells them apart may be missing. Identical values can stand only once.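 Where inhibition never reached the appropriate level, the endpoint shown equals the highest concentration tested. Otherwise, values were interpolated linearly from a five-concentration, 48-hour dose response in 96-well plates. Here, GI50 denotes the concentration required for 50% inhibition of growth. TGI is the concentration that stops growth completely.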

Assays:
Test in all cases: NCI anticancer screen, dose series, 48 h
[1] = system: SNB-19 CNS
[2] = system: KM20L2 colon
[3] = system: SNB-75 CNS
[4] = system: HCT-116 colon
[5] = system: A498 renal
[6] = system: OVCAR-3 ovarian
[7] = system: EKVX NSCLC
[8] = system: A549 NSCLC
[9] = system: DMS 114 small cell lung
[10] = system: MCF7 breast

Row | Structure (SMILES) | GI50 [1] | TGI [1] | GI50 [2] [µM] | TGI [2] [µM] | GI50 [3] | TGI [3] | GI50 [4] | TGI [4] | GI50 [5] | TGI [5] | GI50 [6] | TGI [6] | GI50 [7] | TGI [7] | GI50 [8] | TGI [8] | TGI [9] [µM] | GI50 [10] | TGI [10]
1 | CCC(C(=O)[O-])C(=O)[O-].CCC(C(=O)[O-])C(=O)[O-].N.N.NCCCCCCN.[Pt+4].[Pt+4] | 10.3 µM | 21.9 µM | 15 | 29 | 9.85 µM | 20.4 µM | 5.59 µM | 14 µM | 8.85 µM | 18.1 µM | 9 µM | 16.3 µM | 20.7 µM | 33.3 µM | 10.8 µM | 24.1 µM |  |  | 
2 | Cc1nc(Nc2ccc([N+](=O)[O-])cc2)sc1C(/C=C/c1ccc(N(C)C)cc1)=N/NC(=O)c1ccccc1 |  | > 100 µM |  | > 100 |  | > 100 µM |  | > 100 µM |  |  |  | > 100 µM |  | > 100 µM |  | > 100 µM | > 100 |  | 
3 | c1ccc(COCC2OC3c4ccccc4COC3C2OCc2ccccc2)cc1 (stereo unspecified) |  | > 100 µM |  | > 100 |  | > 100 µM |  | > 100 µM |  |  |  | > 100 µM |  | > 100 µM |  | > 100 µM | > 100 |  | 
4 | CCOC(=O)c1cc2c(n1Cc1ccccc1)-c1oncc1CC2 | 7 µM | > 100 µM |  |  | 4.68 µM | > 100 µM | 3.45 µM | 13.7 µM | 1.55 µM | 7.5 µM | 3.06 µM | 10.5 µM | 5.65 µM | 49.5 µM | 4.93 µM | > 100 µM |  | > 100 µM | > 100 µM
5 | Cc1cc(C)nc(SC2=C(Nc3cccc(Cl)c3C)C(=O)N(Cc3ccccc3)C2=O)n1 | > 160 µM | > 160 µM |  |  | > 160 µM | > 160 µM | > 160 µM | > 160 µM | > 160 µM | > 160 µM | > 160 µM | > 160 µM | > 160 µM | > 160 µM | > 160 µM | > 160 µM |  | > 160 µM | > 160 µM
6 | COc1cnc2c(c1)C(=O)c1c-2n(CCCN2CCCC2)c(=O)c2cc(F)ccc12 | 0.24 µM | 2.74 µM |  |  | 0.327 µM | 5.44 µM | 0.153 µM | 0.663 µM | 0.344 µM | 1.65 µM | 0.307 µM | 1.51 µM | 0.407 µM | 4.24 µM | 0.0936 µM | 0.351 µM |  | 0.0482 µM | 3.88 µM
7 | CCCCCCCCCCCCOC1C(CNC(=O)C2OC3OC(C)(C)OC3C2NC(=O)CN2CCCCCC2)OC2OC(C)(C)OC21 (stereo unspecified) | 10.3 µM | 23.8 µM |  |  | 8.49 µM | 21.4 µM | 4.06 µM | 12.8 µM | 13 µM | 26.3 µM | 8.39 µM | 23.8 µM | 8.15 µM | 20.7 µM | 4.46 µM | 17.8 µM |  | 3.7 µM | 14.3 µM
8 | O=C([O-])c1ccc(C(=O)[O-])cc1.O=C([O-])c1ccc(C(=O)[O-])cc1.[Mo+2].[Mo+2] | > 100 µM | > 100 µM | > 100 | > 100 |  |  | > 100 µM | > 100 µM |  |  | > 100 µM | > 100 µM | > 100 µM | > 100 µM | > 100 µM | > 100 µM |  |  | 
9 | CCOC(=O)NC(=O)c1cn(CCN2CCN(C(=O)CCCCCCCCCCNc3ncnc4nc[nH]c34)CC2)c(=O)[nH]c1=O |  | > 100 µM |  | > 100 |  | > 100 µM |  | > 100 µM |  |  |  | > 100 µM |  | > 100 µM |  | > 100 µM |  |  | 
10 | O=C(O)c1ccc2c(c1)nc(Nc1cccc(Cl)c1)c1ccncc12 | 3.04 µM and 3.46 µM | > 100 µM |  |  | 1.44 µM and 1.67 µM | 6.33 µM and 7.53 µM | 2.39 µM and 2.82 µM | 8.69 µM and > 10 µM | 0.231 µM and 1.99 µM | 2.46 µM and 6.66 µM | 1.2 µM and 1.68 µM | 4.15 µM and > 10 µM | 3.46 µM and 4.04 µM | 23.9 µM and > 10 µM | 7.23 µM and 6.64 µM | 27.4 µM and > 10 µM |  | 2.22 µM and 2.57 µM | > 100 µM
11 | COc1ccc(Cn2cc3c(c2-c2cc(OC)c(OC)c(OC)c2)CCc2cnoc2-3)cc1[N+](=O)[O-] | 1.87 µM | > 100 µM |  |  | 0.849 µM |  | 0.587 µM | > 100 µM | 0.617 µM |  | 0.441 µM | 3.09 µM | 1.43 µM | > 100 µM | 1 µM | > 100 µM |  | 0.454 µM | > 100 µM
12 | Cc1c(NC(=O)OC[C@@H]2COCCN2)cn2ncnc(Nc3ccc4c(cnn4Cc4cccc(F)c4)c3)c12 | > 10 µM and 9.04 µM | > 10 µM and 23.2 µM |  |  | 8 µM and 7.09 µM | > 10 µM and 30.9 µM | 7.82 µM and 5.22 µM | > 10 µM and 18.7 µM | 0.532 µM and 1.02 µM | > 10 µM and 15.5 µM | > 10 µM and 6.66 µM | > 10 µM and 21.5 µM | 0.716 µM and 0.257 µM | > 10 µM and 14.2 µM | > 10 µM and 8.26 µM | > 10 µM and 21.5 µM |  | > 10 µM and 12.1 µM | > 10 µM and 33.6 µM
13 | COc1ccc(C(=O)COc2cccc(/C=C3\CSc4ccc(C)cc4C3=O)c2)cc1 | > 100 µM | > 100 µM |  |  | 27.9 µM | > 100 µM | 1.91 µM | 5.71 µM | > 100 µM | > 100 µM | 15.4 µM | 57.6 µM | 25.1 µM | > 100 µM | > 100 µM | > 100 µM |  | 2.64 µM | 31.3 µM
14 | O=C(Oc1ccccc1Cl)c1ccccc1Nc1ccnc(C(F)(F)F)c1 | 7.43 µM | > 100 µM |  |  | 0.676 µM | 27 µM | 1.78 µM | 3.65 µM | 3.92 µM | 17.6 µM | 0.247 µM | 0.533 µM | 6.85 µM | 26 µM | 1.36 µM | 21.5 µM |  | 1.01 µM | > 30.8 µM
15 | O=C1C2c3[nH]c4ccccc4c3[C@@H]3CCCCC3C2C(=O)N1c1ccccc1 (stereo partly specified) |  | > 100 µM |  |  |  | 71.5 µM |  |  |  | 71.9 µM |  | 30.1 µM |  | 37.5 µM |  | > 100 µM | 58.4 |  | 
16 | CCCCCCCCCCCCN(O)C(=O)c1ccccc1 |  | > 100 µM |  | > 100 |  | 82.7 µM |  | > 100 µM |  | 88.3 µM |  | > 100 µM |  | 84.2 µM |  | > 100 µM |  |  | 
17 | CCc1nc(N)nc(N)c1-c1ccc(NCCc2ccccc2)c([N+](=O)[O-])c1 |  | > 63.1 µM |  |  |  | 47.3 µM |  | 36.7 µM |  | 43.4 µM |  | 32.2 µM |  | 54 µM |  | 21.8 µM |  |  | 33.6 µM
